System: HCT116 MTAP^−/− cells
Assay: Determination of intracellular SAM level by LC-MS/MS
Format: cell-based
Conditions: Homo sapiens, HCT-116, 6 h, read-out: SAM production inhibitory activity IC50
Method: Test Example 2. Determination of Intracellular SAM Level
The brief introduction of the test principle: After the test MAT2A inhibitor was incubated with cancer cells for a period of time, the cells were lysed with a stop reagent to quench the activity of the MAT2A enzyme. The catalytic product SAM of MAT2A in the cell lysate was quantitatively determined by LC-MS/MS, and thus the activity of MAT2A in the cell was reflected.
Reference: The experiment referred to the method disclosed in patent WO2018045071.
Material and cell: HCT116 MTAP^−/− cells were purchased from KYinno; fetal bovine serum, McCoy's 5a culture medium, and penicillin-streptomycin were purchased from Gibco Company (U.S.), and 96-well plates were purchased from Corning Company (U.S.).
Cell culture: HCT116 MTAP^−/− cells were cultured with a McCoy's 5a medium containing 10% fetal bovine serum+1% penicillin-streptomycin at 37° C. with 5% CO2. Cells at logarithmic growth phase were available for the experiment.
LC-MS/MS detection: The effect of the compound on the SAM production level in HCT116 MTAP^−/− cell strains was detected by LC-MS/MS. The cells were adjusted to a concentration of 50000 cells per well, seeded on a 96-well plate, and incubated overnight at 37° C. with 5% CO2. In the experimental group, the test compound was dissolved in DMSO, diluted sequentially with DMSO and a culture medium, and transferred to a cell plate at a final concentration of 10 μM, 3-fold dilution. The cells were continuously cultured at 37° C. with 5% CO2 for 6 h. The supernatant was pipetted off. After the cells were washed once with PBS, glacial acetic acid was added to lyse the cells. After the lysate was processed, the SAM concentration was determined by LC-MS/MS analysis.
A negative control group and a positive control group were respectively used as Bottom and Top. The negative control group was added with 10 μM positive compound (compound 072 of Example 51 of patent WO2021139775A1) in the same volume, and other operations were consistent with those of the experimental group. The positive control group was not added with the test compound, only added with DMSO in the same volume, and other operations were consistent with those of the experimental group.
The % Compound inhibition was calculated and fitted to give the IC50 of the compound.
% Compound inhibition=1−100%×(Signal−Bottom)/(Top−Bottom)
Signal referred to the signal value of the experimental group, Bottom referred to the average signal value of the negative control group, and Top referred to the average signal value of the positive control group.

IC50	SMILES
3 nM	Cc1ncccc1-n1c(=O)c2ncn(C)c2c2ccc(C(F)(F)F)nc21 (atropisomer, axis not shown) [Compound 20, 1-methyl-5-(2-methylpyridin-3-yl)-7-(trifluoromethyl)-1,5-dihydro-4H-imidazo[4,5-c][1,8]naphthyridin-4-one]
4.4 nM	Cn1cnc2c(=O)n(-c3cccc(F)c3Cl)c3nc(C(F)(F)F)ccc3c21 (atropisomer, axis not shown) [Compound 25, 5-(2-chloro-3-fluorophenyl)-1-methyl-7-(trifluoromethyl)-1,5-dihydro-4H-imidazo[4,5-c][1,8]naphthyridin-4-one]
2.8 nM	Cn1cnc2c(=O)n(-c3cccc(F)c3Cl)c3nc(C(F)(F)F)ccc3c21 (single isomer, unassigned) [Compound 25-P2, 5-(2-chloro-3-fluorophenyl)-1-methyl-7-(trifluoromethyl)-1,5-dihydro-4H-imidazo[4,5-c][1,8]naphthyridin-4-one]
4.6 nM	Cn1cnc2c(=O)n(-c3cccnc3C(F)(F)F)c3nc(C(F)(F)F)ccc3c21 (single isomer, unassigned) [Compound 41-P2, 1-methyl-7-(trifluoromethyl)-5-(2-(trifluoromethyl)pyridin-3-yl)-1,5-dihydro-4H-imidazo[4,5-c][1,8]naphthyridin-4-one]

SMILES	IC50
Cn1cnc2c(=O)n(-c3cccnc3C3CC3)c3cc(Cl)ccc3c21 (single isomer, unassigned) [Compound 49-P2, 7-chloro-5-(2-cyclopropylpyridin-3-yl)-1-methyl-1,5-dihydro-4H-imidazo[4,5-c]quinolin-4-one]	1.9 nM

From US20240124454A1, “TRICYCLIC COMPOUND AND USE THEREOF” (NANJING ZAIMING PHARMACEUTICAL CO., LTD., priority 2020, published 2024)
